In patent US6309679A, “Method of improving processes using pectinase enzymes with noble gases” (American Air Liquide, priority 1995, dated 2001):

How the values were obtained:
Pectinase (EC 3.2.1.15) = experiment: Pectinase/Pectin reaction gas run (spectrophotometric, 400 nm); assay type: biochemical, Aspergillus niger; settings: maximum effect, percent change compared to air
Description: PECTINASE (EC 3.2.1.15) (P-9932)/PECTIN (P-9135) GAS RUN PROTOCOL
PURPOSE: Effect of Air, Ne, Ar, Kr, Xe, N2 and O2 on Pectinase/Pectin reaction at 10° C., 25° C. and 35° C. (one substrate concentration).
ENZYME: Pectinase (Sigma No. P-9932) from Aspergillus niger Solution in 25-45% glycerol (actual glycerol content on label)
Unit Definition: one unit will liberate 1.0 μmole of galacturonic acid from polygalacturonic acid per min at pH 4.0 at 25° C.
SUBSTRATE: Pectin (Sigma No. P-9135) from Citrus fruits
Soln A: 0.1 M Citric acid--sodium citrate, pH 4.0 at 25° C. Dissolve 7.6 g citric acid and 12.05 g sodium citrate in 1 liter of DI H2 O. Adjust pH to 4.0. pH25° C. =4.013
Soln B: 1% Pectin in DI H2 O Boil 100 ml DI H2 O. Add 1 g pectin, stir by hand. Cover, boil for 2 minutes, stir by hand, boil for an additional 1 minute. Remove from heat and let cool for 10 minutes.
Soln C: Pectinase (50 U/ml) in Soln A Dilute 43.5 ml Pectinase to 50 ml with Soln A. Store in an amber bottle and refrigerate.
R=2.0 ml Soln B+0.5 ml Soln A
Fill the cuvettes with 2.0 ml of Soln B with a 1 cc syringe.
Fill 8 serum vials with 5.0 ml of Soln C Stopper and crimp to effect a gas tight system.
(§1) Bubble 4×30 cc of the appropriate gas in T1G1 . . . 5 cuvettes. Refrigerate under 2×10 cc of the appropriate gas. Keep refrigerated at least 15 minutes before running.
Remove G1 . . . 5 serum vials from fridge. Sample Soln C with 1 cc syringes previously filled with the appropriate gas. Slide the syringes/needle through the silicone but not into the liquid layer, simultaneously push plungers into the liquid and push the plungers simultaneously, THEN IT WILL BE NECESSARY TO PULL AND PUSH PLUNGER FOUR TIMES TO EFFECT MIXING OF THE SUBSTRATE AND ENZYME IN THE CUVETTES, run timedrives.
(§2) Bubble 4×30 cc of the appropriate gas in T2G1 . . . 5 cuvettes. Refrigerate under 2×10 cc of the appropriate gas. Keep refrigerated at least 15 minutes before running.
(§3) Bubble 4×30 cc of the appropriate gas in T3G1 . . . 5 cuvettes. Refrigerate under 2×10 cc of the appropriate gas. Keep refrigerated at least 15 minutes before running.

[1] = test system: Pectinesterase (EC 3.1.1.11); experiment: Pectinesterase/p-Nitrophenyl acetate reaction gas run (spectrophotometric, 400 nm); assay type: biochemical, Orange Peel; settings: maximum effect, percent change compared to air
Description: PECTINESTERASE (P-5400)/p-NITROPHENYL ACETATE (N-8130) GAS RUN PROTOCOL
PURPOSE: Effect of Air, Ne, Ar, Kr, Xe, N2 and 02 on Pectinesterase/p-Nitrophenyl acetate reaction at 10° C., 25° C. and 35° C. (one substrate concentration).
ENZYME: Pectinesterase P-5400
Unit definition: one unit will release 1 μequivalent of acid from pectin per min at pH 7.5 at 30° C.
SUBSTRATE: p-Nitrophenyl acetate N-8130
Soln A: 0.1 M Citric acid--Na2 HPO4 buffer, pH 7.5 25° C.
Soln B: 50 mM Methanolic p-Nitrophenyl acetate (N-8130)
Soln C: p-Nitrophenyl acetate in Soln A
Soln D: Pectinesterase (100 Units/ml) in Soln A
R=2.0 ml Soln C+0.5 ml Soln A
Fill the cuvettes with 2.0 ml of Soln C with a 1 cc syringe.
Fill 8 serum vials with 5.0 ml of Soln D. Stopper and crimp to effect a gas tight system.
as §1
Remove G1 . . . 5 serum vials from fridge. Sample Soln D with 1 cc syringes previously filled with the appropriate gas. Slide the syringes/needle through the silicone but not into the liquid layer, simultaneously push plungers into the liquid and push the plungers simultaneously, run timedrives.
as §2, §3

| Pectinase % Rate Difference (Pectinase (EC 3.2.1.15); 25° C.) [%] | Pectinase % Rate Difference (Pectinase (EC 3.2.1.15); 35° C.) [%] | Pectinase % Yield Difference (Pectinase (EC 3.2.1.15); 35° C.) [%] | Pectinesterase % Rate Difference ([1]; 10° C.) [%] | Pectinesterase % Rate Difference ([1]; 25° C.) [%] | Pectinesterase % Yield Difference ([1]; 25° C.) [%] | Pectinesterase % Rate Difference ([1]; 35° C.) [%] | Pectinesterase % Yield Difference ([1]; 35° C.) [%] | Structure (SMILES) |
| --- | --- | --- | --- | --- | --- | --- | --- | --- |
| 6.4 | 18.3 | 8.0 | 5.0 | 17.7 | 2.1 | 0.8 | 0.70 | [Ar] [Ar, argon] |
| 2.1 | 6.7 | 1.4 | 32.3 | 29.4 | 8.3 | 0.8 | 2.1 | [Kr] [Kr, krypton] |
| 4.3 | 3.3 | 3.3 | 19.4 | 0.0 | 0.37 | 1.6 | 1.4 | [Ne] [Ne, neon] |
| 0.0 | 15.0 | 7.0 | 29.0 | 2.0 | 0.70 | 3.3 | 0.0 | [Xe] [Xe, xenon] |
